Measured values: patent US9139609B2, “C-4″ position substituted macrolide derivative” (priority 2011, dated 2015)
In brackets after ≈: the same amount, converted by molar mass.

Columns and labels:
Type in all cases: cell-based
[1] = system: Haemophilus infuenzae ATCC43095; test: In vitro antibacterial activity, microbroth dilution method (CLSI method), test bacterium A; conditions: read-out: MIC (minimum inhibitory concentration), test bacterium A
Procedure: (§1) In vitro antibacterial activities of the compounds of the present invention against various test bacteria were measured according to the microbroth dilution method (CLSI method). Among them, the bacteria C, D and E are erythromycin resistant bacteria. The MIC values (minimum inhibitory concentration, μg/ml) for the test bacteria A and B are exemplified in Table 22.

[2] = system: Streptococcus pneumoniae ATCC49619; test: In vitro antibacterial activity, microbroth dilution method (CLSI method), test bacterium B; conditions: read-out: MIC (minimum inhibitory concentration), test bacterium B
Procedure: as §1

[3] = system: Streptococcus pyogenes M808; test: In vitro antibacterial activity, microbroth dilution method (CLSI method), test bacterium D (erythromycin resistant); conditions: read-out: MIC (minimum inhibitory concentration), test bacterium D
Procedure: as §1

[4] = system: Streptococcus pneumoniae ATCC700904; test: In vitro antibacterial activity, microbroth dilution method (CLSI method), test bacterium C (erythromycin resistant); conditions: read-out: MIC (minimum inhibitory concentration), test bacterium C
Procedure: as §1

SMILES	MIC [1] [µg/mL]	MIC [2] [µg/mL]	MIC [3] [µg/mL]	MIC [4] [µg/mL]
CC[C@H]1OC(=O)[C@H](C)[C@@H](O[C@H]2C[C@@](C)(OC)[C@@](O)(CN(C)CCN(C)C(C)(C)c3ccccc3OC)[C@H](C)O2)[C@H](C)[C@@H](O[C@@H]2O[C@H](C)C[C@H](N(C)C)[C@H]2O)[C@]2(C)C[C@@H](C)C(O2)[C@H](C)[C@H]2NC(=O)O[C@@]21C [Example332]	4 (≈ 4.04 µM)	0.06 (≈ 0.0605 µM)	–	–
CC[C@H]1OC(=O)[C@H](C)[C@@H](O[C@H]2C[C@@](C)(OC)[C@@](O)(CN(C)CCN(C(C)C)C(C)C)[C@H](C)O2)[C@H](C)[C@@H](O[C@@H]2O[C@H](C)C[C@H](N(C)C)[C@H]2O)[C@@](C)(OC)C[C@@H](C)C(=O)[C@H](C)[C@H]2N(CCNS(C)(=O)=O)C(=O)O[C@]12C [Example404]	4 (≈ 3.76 µM)	0.03 (≈ 0.0282 µM)	–	–
CC[C@H]1OC(=O)[C@H](C)[C@@H](O[C@H]2C[C@@](C)(OC)[C@@](O)(CN(CCOC)CCN(CC)CC)[C@H](C)O2)[C@H](C)[C@@H](O[C@@H]2O[C@H](C)C[C@H](N(C)C)[C@H]2O)[C@@](C)(OC)C[C@@H](C)C(=O)[C@H](C)[C@H]2N(CCNS(C)(=O)=O)C(=O)O[C@]12C [Example443]	4 (≈ 3.7 µM)	0.03 (≈ 0.0278 µM)	–	–
CC[C@H]1OC(=O)[C@H](C)[C@@H](O[C@H]2C[C@@](C)(OC)[C@@](O)(CN(C)CCN(C)C)[C@H](C)O2)[C@H](C)[C@@H](O[C@@H]2O[C@H](C)C[C@H](N(C)C)[C@H]2O)[C@@](C)(OC)C[C@@H](C)C(=O)[C@H](C)[C@H]2N(C)C(=O)O[C@]12C [Example183]	8 (≈ 8.88 µM)	0.016 (≈ 0.0178 µM)	–	–
CC[C@H]1OC(=O)[C@H](C)[C@@H](O[C@H]2C[C@@](C)(OC)[C@@](O)(CN(C)CCN(C)C(C)(C)c3ccccc3OC)[C@H](C)O2)[C@H](C)[C@@H](O[C@@H]2O[C@H](C)C[C@H](N(C)C)[C@H]2O)[C@@](C)(OC)C[C@@H](C)C(=O)[C@H](C)[C@H]2C(C#N)C(=O)O[C@@]21C (some centres unmarked) [Example363]	8 (≈ 7.65 µM)	0.06 (≈ 0.0574 µM)	–	–
CC[C@H]1OC(=O)[C@H](C)[C@@H](O[C@H]2C[C@@](C)(OC)[C@@](O)(CN(C)CCN(C)C(C)(C)c3ccccc3OC)[C@H](C)O2)[C@H](C)[C@@H](O[C@@H]2O[C@H](C)C[C@H](N(C)C)[C@H]2O)[C@@](C)(OC)C[C@@H](C)[C@@H]2NCCN3C(=O)O[C@@]1(C)[C@H]3[C@@H]2C [Example340]	4 (≈ 3.82 µM)	0.06 (≈ 0.0572 µM)	–	–
CC[C@H]1OC(=O)[C@H](C)[C@@H](O[C@H]2C[C@@](C)(OC)[C@@](O)(CN(CC)CCN(CC)CC)[C@H](C)O2)[C@H](C)[C@@H](O[C@@H]2O[C@H](C)C[C@H](N(C)C)[C@H]2O)[C@@](C)(OC)C[C@@H](C)C(=O)[C@H](C)[C@H]2N(CCNS(C)(=O)=O)C(=O)O[C@]12C [Example 413]	–	–	4 to 8 (≈ 3.81 to 7.62 µM)	0.12 to 0.25 (≈ 0.114 to 0.238 µM)
CC[C@H]1OC(=O)[C@H](C)[C@@H](O[C@H]2C[C@@](C)(OC)[C@@](O)(CN(C)CCN(C)C)[C@H](C)O2)[C@H](C)[C@@H](O[C@@H]2O[C@H](C)C[C@H](N(C)C)[C@H]2O)[C@@](C)(OC(=O)NC/C=C/c2ccc3ncccc3c2)C[C@@H](C)C(=O)[C@H](C)[C@H]2NC(=O)O[C@@]21C [Example348]	16 (≈ 14.8 µM)	0.03 (≈ 0.0277 µM)	–	–
CC[C@H]1OC(=O)[C@H](C)[C@@H](O[C@H]2C[C@@](C)(OC)[C@@](O)(CN(C)CCN(CC)C3CCC3)[C@H](C)O2)[C@H](C)[C@@H](O[C@@H]2O[C@H](C)C[C@H](N(C)C)[C@H]2O)[C@@](C)(OC)C[C@@H](C)C(=O)[C@H](C)[C@H]2N(CCCS(C)(=O)=O)C(=O)O[C@]12C [Example418]	4 (≈ 3.77 µM)	0.03 (≈ 0.0283 µM)	–	–
CC[C@H]1OC(=O)[C@H](C)[C@@H](O[C@H]2C[C@@](C)(OC)[C@@](O)(CN(C)CCN(CC)C(=O)OC)[C@H](C)O2)[C@H](C)[C@@H](O[C@@H]2O[C@H](C)C[C@H](N(C)C)[C@H]2O)[C@@](C)(OC)C[C@@H](C)C(=O)[C@H](C)[C@H]2NC(=O)O[C@@]21C [Example264]	8 (≈ 8.46 µM)	0.06 (≈ 0.0635 µM)	–	–
CC[C@H]1OC(=O)[C@H](C)[C@@H](O[C@H]2C[C@@](C)(OC)[C@@](O)(CN(C)CCN(C(C)C)C(C)C)[C@H](C)O2)[C@H](C)[C@@H](O[C@@H]2O[C@H](C)C[C@H](N(C)C)[C@H]2O)[C@@](C)(OC)C[C@@H](C)C(=O)[C@H](C)[C@H]2N(CCOS(N)(=O)=O)C(=O)O[C@]12C [Example456]	2 (≈ 1.88 µM)	0.03 (≈ 0.0281 µM)	–	–
CC[C@H]1OC(=O)[C@H](C)[C@@H](O[C@H]2C[C@@](C)(OC)[C@@](O)(CN(C)CCN(CC)CC)[C@H](C)O2)[C@H](C)[C@@H](O[C@@H]2O[C@H](C)C[C@H](N(C)C)[C@H]2O)[C@@](C)(OC)C[C@@H](C)C(=O)[C@H](C)[C@H]2N(CCN3CCNS3(=O)=O)C(=O)O[C@]12C [Example 440]	–	–	4 to 8 (≈ 3.76 to 7.52 µM)	0.12 to 0.25 (≈ 0.113 to 0.235 µM)
CC[C@H]1OC(=O)[C@H](C)[C@@H](O[C@H]2C[C@@](C)(OC)[C@@](O)(CN(C)CCN(C)C)[C@H](C)O2)[C@H](C)[C@@H](O[C@@H]2O[C@H](C)C[C@H](N(C)C)[C@H]2O)[C@@](C)(OC)C[C@@H](C)C(=O)[C@H](C)[C@H]2N(C)C(=O)O[C@]12C [Example 183]	–	–	≥ 16	0.5 to 2 (≈ 0.555 to 2.22 µM)

The next lines start with the values.

MIC [1] [µg/mL]	MIC [2] [µg/mL]	MIC [3] [µg/mL]	MIC [4] [µg/mL]	SMILES
8 (≈ 8.61 µM)	0.03 (≈ 0.0323 µM)	–	–	CC[C@H]1OC(=O)[C@H](C)[C@@H](O[C@H]2C[C@@](C)(OC)[C@@](O)(CN(C)C(=O)CN(CC)CC)[C@H](C)O2)[C@H](C)[C@@H](O[C@@H]2O[C@H](C)C[C@H](N(C)C)[C@H]2O)[C@@](C)(OC)C[C@@H](C)C(=O)[C@H](C)[C@H]2NC(=O)O[C@@]21C [Example329]
8 (≈ 8.61 µM)	0.06 (≈ 0.0646 µM)	–	–	CC[C@H]1OC(=O)[C@H](C)[C@@H](O[C@H]2C[C@@](C)(OC)[C@@](O)(CN(C)CCN(CC)C(C)=O)[C@H](C)O2)[C@H](C)[C@@H](O[C@@H]2O[C@H](C)C[C@H](N(C)C)[C@H]2O)[C@@](C)(OC)C[C@@H](C)C(=O)[C@H](C)[C@H]2NC(=O)O[C@@]21C [Example263]
4 (≈ 4.3 µM)	0.03 (≈ 0.0322 µM)	–	–	CC[C@H]1OC(=O)[C@H](C)[C@@H](O[C@H]2C[C@@](C)(OC)[C@@](O)(CN(C)CCN(CC)CC)[C@H](C)O2)[C@H](C)[C@@H](O[C@@H]2O[C@H](C)C[C@H](N(C)C)[C@H]2O)[C@@](C)(OC)C[C@@H](C)C(=O)[C@H](C)[C@H]2N(O)C(=O)O[C@]12C [Example170]
–	–	≥ 16	0.5 to 2 (≈ 0.538 to 2.15 µM)	CC[C@H]1OC(=O)[C@H](C)[C@@H](O[C@H]2C[C@@](C)(OC)[C@@](O)(CN(C)CCN(CC)C(C)=O)[C@H](C)O2)[C@H](C)[C@@H](O[C@@H]2O[C@H](C)C[C@H](N(C)C)[C@H]2O)[C@@](C)(OC)C[C@@H](C)C(=O)[C@H](C)[C@H]2NC(=O)O[C@@]21C [Example 263]
4 (≈ 4.37 µM)	0.03 (≈ 0.0328 µM)	–	–	CC[C@H]1OC(=O)[C@H](C)[C@@H](O[C@H]2C[C@@](C)(OC)[C@@](O)(CN(C)CCN(CC)CC)[C@H](C)O2)[C@H](C)[C@@H](O[C@@H]2O[C@H](C)C[C@H](N(C)C)[C@H]2O)[C@@](C)(OC)C[C@@H](C)C(=O)[C@H](C)[C@H]2NC(=O)O[C@@]21C [Example299]
–	–	≥ 16	0.5 to 2 (≈ 0.538 to 2.15 µM)	CC[C@H]1OC(=O)[C@H](C)[C@@H](O[C@H]2C[C@@](C)(OC)[C@@](O)(CN(C)C(=O)CN(CC)CC)[C@H](C)O2)[C@H](C)[C@@H](O[C@@H]2O[C@H](C)C[C@H](N(C)C)[C@H]2O)[C@@](C)(OC)C[C@@H](C)C(=O)[C@H](C)[C@H]2NC(=O)O[C@@]21C [Example 329]
